{
  "source": "patent US7524861B2",
  "about": "“Process for the preparation of a hydrate of an anthranilic acid derivative” (priority 2002, dated 2009)",
  "type_in_all_cases": "cell-based",
  "key": {"2780AD": {"system": "2780AD", "assay": "Potentiation of toxicity of various cytotoxic agents, potentiation index", "settings": "Taxol, compound 10 nM", "description": "(§1) (b) Cells were cultured for four days with a titration of doxorubicin (0.263 nM-[…]) in the presence of a fixed concentration of each compound. Proliferation was quantified as described by Skehen et al, loc cit. The IC50 (concentration required to reduce proliferation to 50% of the untreated controls) for doxorubicin alone and with each compound were derived and used to calculate the potentiation index (PI):\n(§2) The potentiation indices of a selection of compounds using a variety of cell lines and a variety of cytotoxics other than doxorubicin were measured following the protocol described above for doxorubicin, and the results are shown in Table D."}, "H69/LX4": {"system": "H69/LX4", "assay": "Potentiation of toxicity of various cytotoxic agents, potentiation index", "settings": "for Potentiaton Index at RMA Concentration 10 nM: compound 10 nM; for Potentiaton Index at RMA Concentration 30 nM: compound 30 nM", "description": "as §1, §2"}, "AR 1.0 cells": {"system": "AR 1.0 cells", "assay": "Potentiation of doxorubicin toxicity: proliferation assay, compound titrated against fixed doxorubicin (sulphorhodamine B)", "settings": "Mus musculus, 96 h; with fixed doxorubicin (0.34 mm); four day incubation; read-out: Toxicity with Cytotoxic Agent (IC50 mM)", "description": "The EMT6 mouse mammary carcinoma cell line and the MDR resistant subline AR 1.0 were cultured in RPMI 1640 medium containing 10% foetal calf serum and 2 mM glutamine at 37° C. in 5% CO2. Cells were passaged between 1 in 200 and 1 in 2000 in the case of the parental cell line and between 1 in 20 and 1 in 200 in the case of the MDR resistant subline, after trypsinisation (0.25% trypsin, 0.2 gl^−1, EDTA).\n(a) Selected compounds of formula (I) were examined for their ability to potentiate the toxicity of doxorubicin in AR 1.0 cells. In initial proliferation assays compounds were titrated against a fixed concentration of doxorubicin ([…]) which alone is non-toxic to AR 1.0 cells. After a four day incubation with doxorubicin proliferation was measured using the colorimetric sulphorhodamine B assay (Skehan et al; J Natl. Cancer Inst. 82 pp 1107-1112 (1990))."}},
  "data": [
    {"smiles": "COc1cc2c(cc1OC)CN(CCc1ccc(NC(=O)c3sccc3NC(=O)c3cnc4ccccc4c3)cc1)CC2", "note": "[Compound 3, Quinoline-3-carboxylic acid (2-{4-[2-(6,7-dimethoxy-3,4-dihydro-1H-isoquinolin-2-yl)-ethyl]-phenylcarbamoyl}-thiophen-3-yl)-amide]", "values": [
      {"measurement": "Potentiaton Index at RMA Concentration 10 nM", "setting": "2780AD", "result": 18},
      {"measurement": "Potentiaton Index at RMA Concentration 10 nM", "setting": "H69/LX4; Vincristine", "result": 2},
      {"measurement": "Potentiaton Index at RMA Concentration 30 nM", "setting": "H69/LX4; Vincristine", "result": 79}
    ]},
    {"smiles": "COc1cc2c(cc1OC)CN(CCc1ccc(NC(=O)c3c(C)csc3NC(=O)c3cnc4ccccc4c3)cc1)CC2", "note": "[Compound 6, Quinoline-3-carboxylic acid (3-{4-[2-(6,7-dimethoxy-3,4-dihydro-1H-isoquinolin-2-yl)-ethyl]-phenylcarbamoyl}-4-methyl-thiophen-2-yl)-amide]", "values": [
      {"measurement": "Potentiaton Index at RMA Concentration 10 nM", "setting": "H69/LX4; Taxol", "result": 1},
      {"measurement": "Potentiaton Index at RMA Concentration 30 nM", "setting": "H69/LX4; Taxol", "result": 3},
      {"measurement": "Potentiaton Index at RMA Concentration 50 nM", "setting": "H69/LX4; Taxol, compound 50 nM", "result": 9}
    ]},
    {"smiles": "COc1ccc(CN(C)CCc2ccc(NC(=O)c3ccccc3NC(=O)c3cnc4ccccc4c3)cc2)cc1OC", "note": "[Compound 7, Quinoline-3-carboxylic acid [2-(4-{2-[(3,4-dimethoxy-benzyl)-methyl-amino]-ethyl}-phenylcarbamoyl)-phenyl]-amide]", "values": [
      {"measurement": "Potentiaton Index at RMA Concentration 10 nM", "setting": "H69/LX4; Taxol", "result": 2.2}
    ]},
    {"smiles": "COc1cc2c(cc1OC)CN(CCNC(=O)c1ccccc1NC(=O)c1nccc3ccccc13)CC2", "note": "[Compound 27, Isoquinoline-1-carboxylic acid {2-[2-(6,7-dimethoxy-3,4-dihydro-1H-isoquinolin-2-yl)-ethylcarbamoyl]-phenyl}-amide]", "values": [
      {"measurement": "IC50", "setting": "AR 1.0 cells", "result": 1000, "unit": "nM"}
    ]},
    {"smiles": "COc1cc2c(cc1OC)CN(CCNC(=O)c1ccccc1NC(=O)c1ccc3ccccc3n1)CC2", "note": "[Compound 28, Quinoline-2-carboxylic acid {2-[2-(6,7-dimethoxy-3,4-dihydro-1H-isoquinolin-2-yl)-ethylcarbamoyl]-phenyl}-amide]", "values": [
      {"measurement": "IC50", "setting": "AR 1.0 cells", "result": 550, "unit": "nM"}
    ]},
    {"smiles": "COc1cc2c(cc1OC)CN(CCNC(=O)c1ccccc1NC(=O)c1cc3ccccc3cn1)CC2", "note": "[Compound 29, Isoquinoline-3-carboxylic acid {2-[2-(6,7-dimethoxy-3,4-dihydro-1H-isoquinolin-2-yl)-ethylcarbamoyl]-phenyl}-amide]", "values": [
      {"measurement": "IC50", "setting": "AR 1.0 cells", "result": 300, "unit": "nM"}
    ]},
    {"smiles": "COc1cc2c(cc1OC)CN(CCc1ccc(NC(=O)c3cc(F)ccc3NC(=O)c3cnc4ccccc4c3)cc1)CC2", "note": "[Compound 33, Quinoline-3-carboxylic acid (2-{4-[2-(6,7-dimethoxy-3,4-dihydro-1H-isoquinolin-2-yl)-ethyl]-phenylcarbamoyl}-4-fluoro-phenyl)-amide]", "values": [
      {"measurement": "IC50", "setting": "AR 1.0 cells", "result": 5, "unit": "nM"}
    ]},
    {"smiles": "COc1cc2c(cc1OC)CN(CCc1ccc(NC(=O)c3cc(OC)c(OC)cc3NC(=O)c3cnc4ccccc4c3)cc1)CC2", "note": "[Compound 34, Quinoline-3-carboxylic acid (2-{4-[2-(6,7-dimethoxy-3,4-dihydro-1H-isoquinolin-2-yl)-ethyl]-phenylcarbamoyl}-4,5-dimethoxy-phenyl)-amide]", "values": [
      {"measurement": "IC50", "setting": "AR 1.0 cells", "result": 1.8, "unit": "nM"}
    ]},
    {"smiles": "COc1cc2c(cc1OC)CN(CCc1ccc(NC(=O)c3cc4c(cc3NC(=O)c3cnc5ccccc5c3)OCO4)cc1)CC2", "note": "[Compound 35, Quinoline-3-carboxylic acid (6-{4-[2-(6,7-dimethoxy-3,4-dihydro-1H-isoquinolin-2-yl)-ethyl]-phenylcarbamoyl}-benzo[1,3]dioxol-5-yl)-amide]", "values": [
      {"measurement": "IC50", "setting": "AR 1.0 cells", "result": 1.4, "unit": "nM"}
    ]},
    {"smiles": "COc1cc2c(cc1OC)CN(CCc1ccc(NC(=O)c3ccc([N+](=O)[O-])cc3NC(=O)c3cnc4ccccc4c3)cc1)CC2", "note": "[Compound 36, Quinoline-3-carboxylic acid (2-{4-[2-(6,7-dimethoxy-3,4-dihydro-1H-isoquinolin-2-yl)-ethyl]-phenylcarbamoyl}-5-nitro-phenyl)-amide]", "values": [
      {"measurement": "IC50", "setting": "AR 1.0 cells", "result": 3.8, "unit": "nM"}
    ]},
    {"smiles": "COc1cc2c(cc1OC)CN(CCc1ccc(NC(=O)c3cc(C)ccc3NC(=O)c3cnc4ccccc4c3)cc1)CC2", "note": "[Compound 37, Quinoline-3-carboxylic acid (2-{4-[2-(6,7-dimethoxy-3,4-dihydro-1H-isoquinolin-2-yl)-ethyl]-phenylcarbamoyl}-4-methyl-phenyl)-amide]", "values": [
      {"measurement": "IC50", "setting": "AR 1.0 cells", "result": 15, "unit": "nM"}
    ]},
    {"smiles": "COc1cc2c(cc1OC)CN(CCc1ccc(NC(=O)c3ccc(C)cc3NC(=O)c3cnc4ccccc4c3)cc1)CC2", "note": "[Compound 38, Quinoline-3-carboxylic acid (2-{4-[2-(6,7-dimethoxy-3,4-dihydro-1H-isoquinolin-2-yl)-ethyl]-phenylcarbamoyl}-5-methyl-phenyl)-amide]", "values": [
      {"measurement": "IC50", "setting": "AR 1.0 cells", "result": 5, "unit": "nM"}
    ]},
    {"smiles": "COc1cc2c(cc1OC)CN(CCc1ccc(NC(=O)c3cc(Cl)ccc3NC(=O)c3cnc4ccccc4c3)cc1)CC2", "note": "[Compound 39, Quinoline-3-carboxylic acid (2-{4-[2-(6,7-dimethoxy-3,4-dihydro-1H-isoquinolin-2-yl)-ethyl]-phenylcarbamoyl}-4-chloro-phenyl)-amide]", "values": [
      {"measurement": "IC50", "setting": "AR 1.0 cells", "result": 5, "unit": "nM"}
    ]},
    {"smiles": "COc1cc2c(cc1OC)CN(CCc1ccc(NC(=O)c3ccc(Cl)cc3NC(=O)c3cnc4ccccc4c3)cc1)CC2", "note": "[Compound 40, Quinoline-3-carboxylic acid (2-{4-[2-(6,7-dimethoxy-3,4-dihydro-1H-isoquinolin-2-yl)-ethyl]-phenylcarbamoyl}-5-chloro-phenyl)-amide]", "values": [
      {"measurement": "IC50", "setting": "AR 1.0 cells", "result": 40, "unit": "nM"}
    ]},
    {"smiles": "COc1cc2c(cc1OC)CN(CCc1ccc(NC(=O)c3ccc(N)cc3NC(=O)c3cnc4ccccc4c3)cc1)CC2", "note": "[Compound 41, Quinoline-3-carboxylic acid (2-{4-[2-(6,7-dimethoxy-3,4-dihydro-1H-isoquinolin-2-yl)-ethyl]-phenylcarbamoyl}-5-amino-phenyl)-amide]", "values": [
      {"measurement": "IC50", "setting": "AR 1.0 cells", "result": 4400, "unit": "nM"}
    ]},
    {"smiles": "COc1cc2c(cc1OC)CN(CCc1ccc(NC(=O)c3ccccc3NC(=O)c3ccc4ccccc4n3)cc1)CC2", "note": "[Compound 42, Quinoline-2-carboxylic acid (2-{4-[2-(6,7-dimethoxy-3,4-dihydro-1H-isoquinolin-2-yl)-ethyl]-phenylcarbamoyl}-phenyl)-amide]", "values": [
      {"measurement": "IC50", "setting": "AR 1.0 cells", "result": 70, "unit": "nM"}
    ]},
    {"smiles": "COc1cc2c(cc1OC)CN(CCc1ccc(NC(=O)c3ccccc3NC(=O)c3cnc4c(c3)CCCC4)cc1)CC2", "note": "[Compound 43, 5,6,7,8-Tetrahydroquinoline-3-carboxylic acid (2-{4-[2-(6,7-dimethoxy-3,4-dihydro-1H-isoquinolin-2-yl)-ethyl]-phenylcarbamoyl}-phenyl)-amide]", "values": [
      {"measurement": "IC50", "setting": "AR 1.0 cells", "result": 50, "unit": "nM"}
    ]},
    {"smiles": "O=C(Nc1ccccc1C(=O)Nc1ccc(CCN2CCc3ccccc3C2)cc1)c1cnc2ccccc2c1", "note": "[Compound 44, Quinoline-3-carboxylic acid (2-{4-[2-(3,4-dihydro-1H-isoquinolin-2-yl)-ethyl]-phenylcarbamoyl}-phenyl)-amide]", "values": [
      {"measurement": "IC50", "setting": "AR 1.0 cells", "result": 0.35, "unit": "nM"}
    ]},
    {"smiles": "COc1cc2c(cc1OC)CN(Cc1ccc(NC(=O)c3ccccc3NC(=O)c3cnc4ccccc4c3)cc1)CC2", "note": "[Compound 45, Quinoline-3-carboxylic acid {2-[4-(6,7-dimethoxy-3,4-dihydro-1H-isoquinolin-2-ylmethyl)-phenylcarbamoyl]-phenyl}-amide]", "values": [
      {"measurement": "IC50", "setting": "AR 1.0 cells", "result": 22, "unit": "nM"}
    ]}
  ]
}
